We go through one compound from patent US11504380B2, “Method of treatment of cirrhosis” (INVENTIVA, priority 2019, dated 2022).

Each structure is given as a SMILES string.

Common to all, as to assay type: in vivo, Sprague Dawley rats
Test [1] concerns rat model of cirrhosis induced by the administration of thioacetamide (TAA). The experiment in a line: AST protein content in plasma of TAA-induced cirrhotic rats. The settings on record: TAA-exposed rats, 100 mg/kg, vs vehicle, p<0.005 (FIG. 8). The source says:
(§1) Lanifibranor has been assessed in a rat model of cirrhosis induced by the administration of thioacetamide (TAA), which administration leads to the development of fibrosis in the early time points and then of cirrhosis in the late time points, turning for the majority of the animals to decompensated cirrhosis. Sprague Dawley rats (12-15 rats per groups) were intraperitoneally administered TAA (twice a week) for a period of twelve weeks to ensure reaching decompensated cirrhosis. At the end of this period, a TAA detoxification period of four days was observed. The rats were then orally administered for two weeks with either lanifibranor at 100 mg/kg/day in vehicle (methylcellulose 1%+poloxamer-188 0.1%), or with vehicle alone (control). At the end of the two weeks of treatment in vivo systemic and hepatic hemodynamics were determined and rats were then sacrificed, and plasma samples and liver tissue were harvested.

The test system is the same in test [2]. The experiment in a line: Systemic and hepatic hemodynamics, ascites and body/organ weights in TAA-induced cirrhotic rats. The settings on record: for IHVR (intrahepatic resistance) / PBF (portal blood flow) / PP (portal pressure): 100 mg/kg/day.
Excerpt: as §1, with “harvested. The hemodynamics measurements were obtained as follow: mean arterial pressure (MAP) and heart rate (HR) were measured by cannulating the femoral artery; portal pressure (PP) was measured by cannulating the ileocolic vein, both with a heparinized p50 catheter (Portex) connected to a pressure probe; portal blood flow (PBF) was determined with the help of specific non-constrictive perivascular ultrasonic transit-time flow probe (Transonic Systems Inc.).” for “harvested.”

For test [3] the test system is unchanged. The experiment in a line: Liver histology (Sirius Red collagen staining) and electron microscopy of sinusoidal fenestrae in TAA-induced cirrhotic rats. The settings on record: TAA-exposed rats, 100 mg/kg.
Excerpt: as §1, with “harvested. Liver tissue samples for histology were fixed in 4% formaldehyde (Sigma), embedded in paraffin, sectioned and stained with 0.1% Sirius Red in picric acid aqueous solution (Sigma). Sinusoidal fenestrae were analyzed by electronic microscopy.” for “harvested.”

For test [4] the test system is unchanged. The experiment in a line: Liver tissue protein levels by Western blot in TAA-induced cirrhotic rats. The settings on record: TAA-exposed rats, 100 mg/kg, vs vehicle.
Excerpt: as §1, with “harvested. Triton lysis buffer was used for protein extraction of liver tissue samples. Proteins were separated by molecular weight by electrophoresis using a sodium dodecylsulphate polyacrylamide gel, and transferred to a nitrocellulose membrane (Western blot).” for “harvested.”
(In general: A western blot detects proteins with antibodies after separation by electrophoresis.)

For test [5] the test system is unchanged. The experiment in a line: Liver tissue mRNA expression by qPCR in TAA-induced cirrhotic rats. The settings on record: TAA-exposed rats, 100 mg/kg.
Excerpt: as §1, with “harvested. RNA was extracted from liver tissue using Trizol (Life Technologies), and quantified with the help of a NanoDrop spectrophotometer. Reverse transcription was carried out following QuantiTect reverse transcription kit (Qiagen). qPCR was performed using PowerUp SYBR Green Master Mix (Thermo Fisher) and specific primers.” for “harvested.”
Background: In qPCR the cycle at which signal appears reflects the starting amount.

The mark [6] stands for this setting: TAA-exposed rats, 100 mg/kg/day orally for two weeks.
[7] abbreviates: TAA-exposed rats, 100 mg/kg/day orally for two weeks, listed as lanifibranor.

As to `O=C(O)CCCc1cc2cc(Cl)ccc2n1S(=O)(=O)c1ccc2ncsc2c1` [Lanifibranor, 4-[1-(1,3-benzothiazol-6-ylsulfonyl)-5-chloroindol-2-yl]butanoic acid], the “AST protein content in plasma” value in test [1] is “significantly decreased”. In test [2] (setting [6]), the Ascites amounted to 16%, the “MAP (mean arterial pressure)” value worked out at 84 ± 2 mmHg, the “IHVR (intrahepatic resistance)” value was 0.53 ± 0.06 mmHg · min/mL and the “PBF (portal blood flow)” value is 23.5 ± 2.1 mL/min. Moreover, the “PP (portal pressure)” value in test [2] (setting [6]) is reported as 11.2 ± 0.5 mmHg. Also, in test [2] (setting [7]), the “IHVR (intrahepatic resistance)” value was 0.75±0.1 mmHg · min/mL, the “PBF (portal blood flow)” value is reported as “no significant changes” and the “PP (portal pressure)” value was 11.2±0.5 mmHg. The systemic hemodynamics result in test [2] (cirrhotic rats administered with lanifibranor vs vehicle) was “No effects”. Further, the “collagen deposition (PicroSirius Red, PSR, staining)” value in test [3] is listed as 12.3%. Also, the “sinusoidal capillarization (sinusoidal fenestrae)” value in test [3] (vs vehicle, p<0.05 (FIG. 4), electronic microscopy) is on record as “significantly reduced”. Besides, in test [3] (PicroSirius Red staining), the “histological decrease in collagen deposition compared to vehicle” value is recorded as 32%. Also, the “protein level of Von Willebrand factor” value in test [4] (p<0.01 (FIG. 5)) was “significantly reduced”. For the same compound, the “α-SMA expression at protein level” value in test [4] (p<0.05 (FIG. 3a)) was “significantly reduced”. Also, the “protein level of Desmin” value in test [4] (p<0.05 (FIG. 3b)) is listed as “significantly reduced”. Moreover, the “VCAM-1 mRNA expression” value in test [5] (vs vehicle (FIG. 6)) was “a trend”. Moreover, in test [5] (vs vehicle, P<0.05 (FIG. 6)), the “E-Selectin mRNA” value is “significant decrease” and the “ICAM-1 mRNA” value is reported as “significant decrease”. Moreover, in test [5] (vs vehicle, p<0.001 (FIG. 2)), the “TIMP1 mRNA expression” value is given as “significantly reduced”. In addition, in test [5] (vs vehicle, p<0.005 (FIG. 1)), the “collagen 1a1 mRNA expression” value is listed as “significant decrease”. The “α-SMA expression at mRNA level” value in test [5] (vs vehicle, p<0.005 (FIG. 3a)) is given as “significantly reduced”. Moreover, the “TIMP2 mRNA expression” value in test [5] (vs vehicle, p<0.05 (FIG. 2)) is listed as “significantly reduced”. In addition, the “IL-6 mRNA expression” value in test [5] (vs vehicle, p<0.05 (FIG. 7)) is listed as “significantly decreased”.
